≈ marks a conversion by molar mass, not a printed value.
Columns and labels:
Assay in all cases: Antibacterial assay, microtitration MIC (Test A)
Format in all cases: cell-based
H. influenzae HI-3542 = conditions: Haemophilus influenzae, HI3542, Gram Negative Bacteria; strain HI-3542; read-out: Minimum Inhibitory Concentrations H. influenzae HI-3542
Procedure: (§1) The compounds of the present invention were tested against an assortment of Gram-negative and Gram-positive organisms using standard microtitration techniques (Cohen et. al., Antimicrob., 1985;28:766; Heifetz, et. al., Antimicrob., 1974;6:124). The results of the evaluation are shown in Tables 1A and B, wherein “-” means no data.

M. catarrhalis BC-3531 = conditions: Moraxella catarrhalis, BC3531, Gram Negative Bacteria; strain BC-3531; read-out: Minimum Inhibitory Concentrations M. catarrhalis BC-3531
Procedure: as §1

E. coli EC-2549 = conditions: Escherichia coli, EC2549, Gram Negative Bacteria; strain EC-2549; read-out: Minimum Inhibitory Concentrations E. coli EC-2549
Procedure: as §1

Row | Compound | MIC (H. influenzae HI-3542) | MIC (M. catarrhalis BC-3531) | MIC (E. coli EC-2549)
1 | O=C(O)c1cn(-c2ccc(F)cc2F)c2nc(N3C[C@@H](CO)[C@@H](CO)C3)c(F)cc2c1=O [drawing 379] | 0.03 µg/mL (≈ 0.0668 µM) | 0.25 µg/mL (≈ 0.556 µM) | 0.5 µg/mL (≈ 1.11 µM)
2 | CCC(=O)OC[C@@H]1CN(c2c(F)cc3c(=O)c(C(=O)O)cn(C4CC4)c3c2C)C[C@@H]1COC(=O)CC [drawing 393] | 0.5 µg/mL (≈ 0.995 µM) | 0.03 µg/mL (≈ 0.0597 µM) | 1 µg/mL (≈ 1.99 µM)
3 | COc1c(N2CCC(C(CO)CO)C2)c(F)cc2c(=O)c(C(=O)O)cn(C3CC3)c12 (stereo not drawn) [drawing 307] | 0.008 µg/mL (≈ 0.019 µM) | 0.015 µg/mL (≈ 0.0357 µM) | 0.06 µg/mL (≈ 0.143 µM)
4 | COCC(O)C1CN(c2c(F)cc3c(=O)c(C(=O)O)cn(C4CC4)c3c2C)CC1(C)C (stereo not drawn) [drawing 426] | 0.25 µg/mL (≈ 0.578 µM) | 0.125 µg/mL (≈ 0.289 µM) | 1 µg/mL (≈ 2.31 µM)
5 | COc1c(N2CCC(C(O)C(F)F)C2)c(F)cc2c(=O)c(C(=O)O)cn(C3CC3)c12 (stereo not drawn) [drawing 311] | 0.015 µg/mL (≈ 0.0352 µM) | 0.03 µg/mL (≈ 0.0704 µM) | 0.125 µg/mL (≈ 0.293 µM)
6 | Cc1c(N2C[C@@H]3C[C@@H](O)[C@@H](O)[C@@H]3C2)c(F)cc2c(=O)c(C(=O)O)cn(C3CC3)c12 [drawing 446] | 0.008 µg/mL (≈ 0.0199 µM) | 0.03 µg/mL (≈ 0.0745 µM) | 0.125 µg/mL (≈ 0.311 µM)
7 | COc1c(N2CCC(C(O)C(F)(F)F)C2)c(F)cc2c(=O)c(C(=O)O)cn(C3CC3)c12 (stereo not drawn) [drawing 331] | 0.015 µg/mL (≈ 0.0338 µM) | 0.008 µg/mL (≈ 0.018 µM) | 0.125 µg/mL (≈ 0.281 µM)
8 | COc1c(N2C[C@H](CO)[C@@H](CO)C2)c(F)cc2c(=O)c(C(=O)O)cn(C3CC3)c12 [drawing 385] | 0.008 µg/mL (≈ 0.0197 µM) | 0.06 µg/mL (≈ 0.148 µM) | 0.25 µg/mL (≈ 0.615 µM)
9 | Cc1c(N2CC(C(O)CO)C(C)(C)C2)c(F)cc2c(=O)c(C(=O)O)cn(C3CC3)c12 (stereo not drawn) [drawing 425] | 0.06 µg/mL (≈ 0.143 µM) | 0.06 µg/mL (≈ 0.143 µM) | 0.5 µg/mL (≈ 1.19 µM)
10 | Nc1nc(-n2cc(C(=O)O)c(=O)c3cc(F)c(N4CCC(C(O)CO)C4)c(Cl)c32)c(F)cc1F (stereo not drawn) [drawing 326] | 0.008 µg/mL (≈ 0.016 µM) | 0.125 µg/mL (≈ 0.251 µM) | 0.25 µg/mL (≈ 0.501 µM)
11 | Cc1c(N2C[C@@H]3CC[C@@](O)(CO)[C@@H]3C2)c(F)cc2c(=O)c(C(=O)O)cn(C3CC3)c12 [drawing 450] | 0.015 µg/mL (≈ 0.036 µM) | 0.03 µg/mL (≈ 0.072 µM) | 0.125 µg/mL (≈ 0.3 µM)
12 | O=C(O)c1cn(C2CC2)c2c(OC(F)F)c(N3CC4CC(O)C(O)C4C3)c(F)cc2c1=O (stereo not drawn) [drawing 448] | 0.03 µg/mL (≈ 0.066 µM) | 0.06 µg/mL (≈ 0.132 µM) | 0.5 µg/mL (≈ 1.1 µM)
13 | COCCOCC(O)C1CN(c2c(F)cc3c(=O)c(C(=O)O)cn(C4CC4)c3c2C)CC1(C)C (stereo not drawn) [drawing 424] | 0.5 µg/mL (≈ 1.05 µM) | 0.25 µg/mL (≈ 0.525 µM) | 2 µg/mL (≈ 4.2 µM)
14 | Cc1c(N2CCC(C(O)(CO)C(F)(F)F)C2)c(F)cc2c(=O)c(C(=O)O)cn(C3CC3)c12 (stereo not drawn) [drawing 338] | 0.06 µg/mL (≈ 0.131 µM) | 0.06 µg/mL (≈ 0.131 µM) | 0.5 µg/mL (≈ 1.09 µM)
15 | COC[C@@H]1CN(c2c(F)cc3c(=O)c(C(=O)O)cn(C4CC4)c3c2C)C[C@@H]1COC [drawing 388] | 0.25 µg/mL (≈ 0.597 µM) | 0.125 µg/mL (≈ 0.299 µM) | 2 µg/mL (≈ 4.78 µM)
16 | CCCOC[C@@H]1CN(c2c(F)cc3c(=O)c(C(=O)O)cn(C4CC4)c3c2C)C[C@@H]1CO [drawing 391] | 0.06 µg/mL (≈ 0.139 µM) | 0.03 µg/mL (≈ 0.0694 µM) | 0.25 µg/mL (≈ 0.578 µM)
17 | Cc1c(N2CCC(C(O)C(F)(F)F)C2)c(F)cc2c(=O)c(C(=O)O)cn(C3CC3)c12 (stereo not drawn) [drawing 329] | 0.06 µg/mL (≈ 0.14 µM) | 0.03 µg/mL (≈ 0.07 µM) | 0.5 µg/mL (≈ 1.17 µM)
18 | Cc1c(N2CC3(CO)CCCC3(CO)C2)c(F)cc2c(=O)c(C(=O)O)cn(C3CC3)c12 (stereo not drawn) [drawing 452] | 0.015 µg/mL (≈ 0.0348 µM) | 0.03 µg/mL (≈ 0.0697 µM) | 0.125 µg/mL (≈ 0.29 µM)
19 | Cc1c(N2C[C@@H](CCO)[C@@H](CCO)C2)c(F)cc2c(=O)c(C(=O)O)cn(C3CC3)c12 [drawing 395] | 0.015 µg/mL (≈ 0.0358 µM) | 0.06 µg/mL (≈ 0.143 µM) | 0.125 µg/mL (≈ 0.299 µM)
20 | Cc1c(N2CCC(C(O)C(F)F)C2)c(F)cc2c(=O)c(C(=O)O)cn(C3CC3)c12 (stereo not drawn) [drawing 310] | 0.008 µg/mL (≈ 0.0195 µM) | 0.008 µg/mL (≈ 0.0195 µM) | 0.06 µg/mL (≈ 0.146 µM)
21 | Nc1nc(-n2cc(C(=O)O)c(=O)c3cc(F)c(N4C[C@@H](CO)[C@@H](CO)C4)c(Cl)c32)c(F)cc1F [drawing 383] | 0.008 µg/mL (≈ 0.016 µM) | 0.25 µg/mL (≈ 0.501 µM) | 0.5 µg/mL (≈ 1 µM)

Reference: US20050107423A1, “Quinolone antibacterial agents” (priority 2003, published 2005)
